Experiments:
[1] = biological target: T1, mouse wild type (Ms-WT) STING C-terminal binding domain protein (Mus musculus, UniProt Q3TBT3); assay: Thermal shift assay with recombinant STING C-terminal binding domain protein (Ms-WT); settings: test compound 0.5 mM; Tm minus Tm of well without compound
T1 construct: made in house; host or cells: E. coli Rosetta 2 (DE3), co-expressed with BirA
Description: (§1) Each expression strain was added to TB broth containing 100 μg/mL ampicillin, 50 μg/mL streptomycin, and 30 μg/mL kanamycin, and cultured at 37° C. Expression was then induced with 100 µM IPTG, and the cells were further cultured at 16° C.
(§2) The culture broth was centrifuged, and the obtained bacteria were frozen and thawed. The proteins were extracted by sonication, and the supernatant was collected by centrifugation. The resulting supernatant was purified through a HisTrap FF column (GE Healthcare) using an AKTAexpress chromatography system (GE Healthcare, IL, US), made to pass through a Superdex200 16/60 column (GE Healthcare), and eluted.
(§3) The binding of a compound to each STING C-terminal binding domain protein was determined by a thermal shift assay, which uses the increase in the thermal denaturation temperature of the protein as an indicator.
(§4) Specifically, each test compound (final concentration 0.5 mM), SYPRO Orange (final concentration: 20×concentration), and the STING protein were mixed in a 384-well real-time PCR plate using a plate shaker. A real-time PCR system was used to increase the temperature from 25° C. to 95° C. at a rate of 0.03° C. per second, and the thermal denaturation temperature of the protein was measured using the fluorescence emitted by SYPRO Orange as an indicator. Tm (the midpoint of the unfolding transition) (° C.) was determined as the temperature at which the rate of increase in fluorescence intensity reached its maximum value. The shift of Tm by the test compound was calculated as ΔTm (° C.) by subtracting, from the Tm value of each compound, the Tm value of the well without the compound.

[2] = biological target: T2, human REF mutant (Hu-REF) STING C-terminal binding domain protein (Homo sapiens, UniProt Q86WV6); assay: Thermal shift assay with recombinant STING C-terminal binding domain protein (Hu-REF); settings: test compound 0.5 mM; Tm minus Tm of well without compound
T2 construct: made in house; host or cells: E. coli Rosetta 2 (DE3), co-expressed with BirA
Description: as §1, §2, §3
as §4, with “A real-time PCR system was used to increase the temperature from 25° C. to 95° C. at a rate of 0.03° C. per second, and the thermal denaturation temperature of the protein was measured using the fluorescence emitted by SYPRO Orange as an indicator.” left out

[3] = biological target: T3, human wild-type (Hu-WT) STING C-terminal binding domain protein (Homo sapiens, UniProt Q86WV6, H232R); assay: Thermal shift assay with recombinant STING C-terminal binding domain protein (Hu-WT); settings: test compound 0.5 mM; Tm minus Tm of well without compound
T3 construct: made in house; host or cells: E. coli Rosetta 2 (DE3), co-expressed with BirA
Description: as §1, §2, §3
as §4, with “A real-time PCR system was used to increase the temperature from 25° C. to 95° C. at a rate of 0.03° C. per second, and the thermal denaturation temperature of the protein was measured using the fluorescence emitted by SYPRO Orange as an indicator.” left out

[4] = biological target: T4, human AQ mutant (Hu-AQ) STING C-terminal binding domain protein (Homo sapiens, UniProt Q86WV6, G230A/H232R/R293Q); assay: Thermal shift assay with recombinant STING C-terminal binding domain protein (Hu-AQ); settings: test compound 0.5 mM; Tm minus Tm of well without compound
T4 construct: made in house; host or cells: E. coli Rosetta 2 (DE3), co-expressed with BirA
Description: as §1, §2, §3
as §4, with “A real-time PCR system was used to increase the temperature from 25° C. to 95° C. at a rate of 0.03° C. per second, and the thermal denaturation temperature of the protein was measured using the fluorescence emitted by SYPRO Orange as an indicator.” left out

human FcγRI = biological target: T5, human FcγRI (Homo sapiens, UniProt P12314); assay: Human FcγRI binding activity by SPR (Biacore T200); settings: anti-EGFR antibodies as analyte, 0.3-4.7 μM; His-tagged FcγRI captured
T5 construct: purchased R&D systems
Description: Anti-EGFR antibodies with various introduced effector-less mutations were evaluated for their binding activity against human FcγRI using Biacore T200 (Cytiva). […] The anti-EGFR antibody B used in the Test Example was obtained as HBS-EP+ solution by subjecting commercially available Vectibix Intravenous Infusion (Takeda Pharmaceuticals) (100 mg/5 mL) to buffer exchange using Amicon Ultra-15 Centrifugal Filter Unit (50K, produced by Merck). The binding activity was determined by allowing His-tagged human FcγRI to be captured as a ligand onto an anti-His antibody-immobilized sensor chip, then adding each anti-EGFR antibody as an analyte to the sensor chip, and measuring the interaction between the ligand and the analyte by Surface Plasmon Resonance (SPR). Anti-6× His tag antibody [AD1.1.10] (abcam) was immobilized onto Sensor Chip CM5 (Cytiva) according to the instructions of the kit. Recombinant Human Fc gamma RI/CD64 Protein (R&D systems) prepared at 10 μg/mL with HBS-EP+(GE Healthcare) was contacted with the sensor chip for 60 sec at 10 μL/min and thereby captured. Then, the anti-EGFR antibody prepared at each concentration with HBS-EP+ was added to the sensor chip for 120 sec at a flow rate of 30 μL/min.

human FcγRIIb/c = biological target: T6, human FcγRIIb/c (Homo sapiens, UniProt P31994); assay: Human FcγRIIb/c binding activity by SPR; settings: anti-EGFR antibodies as analyte, 0.9-4.7 μM
T6 construct: purchased R&D systems
T6 sequence (P31994 43-310): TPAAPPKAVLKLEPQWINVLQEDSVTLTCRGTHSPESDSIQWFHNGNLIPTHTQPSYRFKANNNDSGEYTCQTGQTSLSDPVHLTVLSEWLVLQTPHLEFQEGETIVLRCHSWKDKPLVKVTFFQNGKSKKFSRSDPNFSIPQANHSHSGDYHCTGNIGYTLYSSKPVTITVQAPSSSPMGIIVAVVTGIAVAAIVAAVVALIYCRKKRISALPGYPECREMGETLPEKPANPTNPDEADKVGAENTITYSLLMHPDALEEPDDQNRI
Description: (§5) The binding activity was determined by directly immobilizing human FcγR as a ligand onto a sensor chip, then adding each anti-EGFR antibody as an analyte to the sensor chip, and measuring the interaction between the ligand and the analyte by SPR. Recombinant Human Fc gammaRIIA/CD32a (R167) Protein (R&D systems) was immobilized as human FcγRIIa onto Sensor Chip CM5 according to the instructions of the kit. Then, the anti-EGFR antibody prepared at each concentration with HBS-EP+ was added to the sensor chip for 120 sec at a flow rate of 30 μL/min.
Recombinant Human Fc gamma RIIB/C (CD32b/c) Protein (R&D systems) was used as human FcγRIIb/c.

human FcγRIIIa = biological target: T7, human FcγRIIIa (Homo sapiens, UniProt P08637); assay: Human FcγRIIIa binding activity by SPR; settings: anti-EGFR antibodies as analyte, 0.9-4.7 μM
T7 construct: purchased R&D systems
Description: as §5
Recombinant Human Fc gamma RIIIA/CD16a protein (R&D systems) was used as human FcγRIIIa.

human FcγRIIIb = biological target: T8, human FcγRIIIb (Homo sapiens, UniProt O75015); assay: Human FcγRIIIb binding activity by SPR; settings: anti-EGFR antibodies as analyte, 0.9-4.7 μM
T8 construct: purchased R&D systems
Description: as §5
Recombinant Human Fc gamma RIIIB/CD16b Protein (R&D systems) was used as human FcγRIIIb.

T2 sequence (Q86WV6 with tags, fused parts or gaps, change not shown): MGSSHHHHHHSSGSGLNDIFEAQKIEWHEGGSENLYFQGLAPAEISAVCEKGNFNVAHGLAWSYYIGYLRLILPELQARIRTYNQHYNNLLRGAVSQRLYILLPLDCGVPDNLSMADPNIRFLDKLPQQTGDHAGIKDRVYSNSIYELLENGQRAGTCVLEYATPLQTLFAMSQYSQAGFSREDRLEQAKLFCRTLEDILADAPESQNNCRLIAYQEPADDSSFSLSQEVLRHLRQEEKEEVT
T1 sequence (Q3TBT3 with tags, fused parts or gaps): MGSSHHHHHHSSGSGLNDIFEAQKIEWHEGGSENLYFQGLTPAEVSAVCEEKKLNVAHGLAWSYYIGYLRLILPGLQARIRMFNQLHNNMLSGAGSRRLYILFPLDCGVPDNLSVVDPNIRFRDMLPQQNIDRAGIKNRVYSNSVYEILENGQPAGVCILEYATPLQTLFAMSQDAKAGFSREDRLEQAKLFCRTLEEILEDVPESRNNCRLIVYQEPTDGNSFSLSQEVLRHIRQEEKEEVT
T4 sequence (Q86WV6 with tags, fused parts or gaps G230A/H232R/R293Q): as the sequence (Q86WV6 with tags, fused parts or gaps, change not shown) above, with G131A, H133R, R194Q counted along it
T3 sequence (Q86WV6 with tags, fused parts or gaps H232R): as the sequence (Q86WV6 with tags, fused parts or gaps, change not shown) above, with H133R counted along it
T7 sequence (P08637 17-254): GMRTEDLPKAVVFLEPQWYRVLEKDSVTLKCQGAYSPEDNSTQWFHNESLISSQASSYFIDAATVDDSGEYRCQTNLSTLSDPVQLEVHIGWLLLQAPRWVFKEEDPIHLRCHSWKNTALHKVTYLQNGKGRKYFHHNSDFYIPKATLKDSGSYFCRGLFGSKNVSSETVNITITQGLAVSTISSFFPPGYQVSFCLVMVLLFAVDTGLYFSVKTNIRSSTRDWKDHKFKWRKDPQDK
T5 sequence (P12314 16-374): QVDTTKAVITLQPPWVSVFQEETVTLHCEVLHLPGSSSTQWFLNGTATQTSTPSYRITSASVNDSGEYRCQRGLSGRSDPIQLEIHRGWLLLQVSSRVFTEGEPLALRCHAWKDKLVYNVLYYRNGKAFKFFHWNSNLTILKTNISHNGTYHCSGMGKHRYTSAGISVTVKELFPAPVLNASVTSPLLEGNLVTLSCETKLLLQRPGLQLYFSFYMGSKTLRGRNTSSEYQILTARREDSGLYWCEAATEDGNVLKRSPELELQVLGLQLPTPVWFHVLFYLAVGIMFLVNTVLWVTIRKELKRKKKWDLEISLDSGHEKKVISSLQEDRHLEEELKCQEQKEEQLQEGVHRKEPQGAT
T8 sequence (O75015 17-200): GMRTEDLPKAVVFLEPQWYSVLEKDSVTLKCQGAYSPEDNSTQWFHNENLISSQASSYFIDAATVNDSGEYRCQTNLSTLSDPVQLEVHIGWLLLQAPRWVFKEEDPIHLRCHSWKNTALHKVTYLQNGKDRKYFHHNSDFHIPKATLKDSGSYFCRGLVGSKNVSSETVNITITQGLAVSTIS

| Compound | ΔTm (° C.) Ms-WT [1] [°C] | ΔTm (° C.) Hu-REF [2] [°C] | ΔTm (° C.) Hu-WT [3] [°C] | ΔTm (° C.) Hu-AQ [4] [°C] | also measured |
| --- | --- | --- | --- | --- | --- |
| O=c1c2ncn([C@@H]3O[C@@H]4COP(=O)(S)O[C@H]5[C@@H](O)[C@H](n6cc7c8c(ncnc86)NCCC7)O[C@@H]5COP(=O)(S)O[C@@H]3[C@@H]4O)c2ncn1CCO (single isomer, unassigned) [Compound 6b] | 12.9 | 3.4 | 8.4 | 11.3 | – |
| O=c1c2ncn([C@@H]3O[C@@H]4COP(=O)(S)O[C@H]5[C@@H](F)[C@H](n6cc7c8c(ncnc86)NCCC7)O[C@@H]5COP(=O)(S)O[C@@H]3[C@@H]4O)c2ncn1CCO (single isomer, unassigned) [Compound 34b] | 16.7 | 6.5 | 12.0 | 14.0 | – |
| O=c1c2ncn([C@@H]3O[C@@H]4COP(=O)(S)O[C@H]5[C@@H](O)[C@H](n6cc7c8c(ncnc86)NCCC7)O[C@@H]5COP(=O)(S)O[C@@H]3[C@@H]4F)c2ncn1CCO (single isomer, unassigned) [Compound 39b] | – | – | – | – | ΔTm at 500 µM [1]: 13.1 °C; ΔTm at 500 µM [2]: 3.7 °C; ΔTm at 500 µM [3]: 8.9 °C; ΔTm at 500 µM [4]: 10.5 °C |
| O=c1c2ncn([C@@H]3O[C@@H]4COP(=O)(S)O[C@H]5[C@@H](F)[C@H](n6cc7c8c(ncnc86)NCCC7)O[C@@H]5COP(=O)(S)O[C@@H]3[C@@H]4F)c2ncn1CCO (single isomer, unassigned) [Compound 44b] | 17.0 | 6.2 | 11.4 | 14.3 | – |
| O=c1c2ncn([C@@H]3O[C@@H]4COP(=O)(S)O[C@H]5[C@@H](F)[C@H](n6cc7c8c(ncnc86)SCCC7)O[C@@H]5COP(=O)(S)O[C@@H]3[C@@H]4O)c2ncn1CCO (single isomer, unassigned) [Compound 48b] | 15.8 | 7.3 | 14.0 | 17.8 | – |
| O=c1c2ncn([C@@H]3O[C@@H]4COP(=O)(O)O[C@H]5[C@@H](F)[C@H](n6cc7c8c(ncnc86)NCCC7)O[C@@H]5COP(=O)(S)O[C@@H]3[C@@H]4O)c2ncn1CCO (single isomer, unassigned) [Compound 52b] | 12.3 | 4.4 | 9.2 | 10.8 | – |
| IgG2: IgG2-type anti-EGFR antibody, commercially available Vectibix Intravenous Infusion; heavy chain SEQ ID NO: 35 | – | – | – | – | RU value indicating binding to human FcγRI (rank order) (human FcγRI): IgG1 WT>>LALA>>IgG2>LALA-DG; RU value indicating binding to human FcγRIIb/c (rank order) (human FcγRIIb/c): IgG1 WT>IgG2>LALA>LALA-DG; RU value indicating binding to human FcγRIIIa (rank order) (human FcγRIIIa): IgG1 WT>LALA>IgG2>LALA-DG; RU value indicating binding to human FcγRIIIb (rank order) (human FcγRIIIb): IgG1 WT>LALA≈IgG2≈LALA-DG |

Source: US20260256934A1, “ANTIBODY-DRUG CONJUGATE INCLUDING MUTANT Fc REGION” (DAIICHI SANKYO COMPANY, LIMITED, priority 2022, published 2026)
